{"source": "patent US20260285850A1", "about": "“SUBSTITUTED OXAZOLIDINONES AND IMIDAZOLINONES AS HERBICIDES” (FMC CORPORATION, priority 2023, published 2026)", "type_in_all_cases": "in vivo", "key": {"[1]": {"test_system": "barnyardgrass (Echinochloa crusgalli)", "test": "Test B flooded paddy test, visual plant response rating 0-100", "conditions": "250 g ai/ha, Flood, applied to paddy water, evaluated after 13 days", "how_it_was_run": "(§1)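 Plants were grown to the 2-leaf stage, then pots were flooded to 3 cm above the soil and compound was applied directly to the paddy water, with that depth kept throughout.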"}, "[2]": {"test_system": "sedge, umbrella (small-flower umbrella sedge, Cyperus difformis)", "test": "Test B flooded paddy test, visual plant response rating 0-100", "conditions": "250 g ai/ha, Flood, applied to paddy water, evaluated after 13 days", "how_it_was_run": "as §1"}, "[3]": {"test_system": "ducksalad (Heteranthera limosa)", "test": "Test B flooded paddy test, visual plant response rating 0-100", "conditions": "250 g ai/ha, Flood, applied to paddy water, evaluated after 13 days", "how_it_was_run": "as §1"}, "[4]": {"test_system": "rice (Oryza sativa)", "test": "Test B flooded paddy test, visual plant response rating 0-100", "conditions": "250 g ai/ha, Flood, applied to paddy water, evaluated after 13 days", "how_it_was_run": "as §1"}, "[5]": {"test_system": "oat, wild (wild oat, Avena fatua)", "test": "Test A preemergence soil spray, visual injury rating 0-100", "conditions": "10 days", "how_it_was_run": "(§2)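 Directed preemergence spray onto seeded soil or postemergence spray onto 2-10 cm plants (loam plus sand); compound carried in surfactant-containing non-phytotoxic solvent. Injury rated by eye after 10 d greenhouse growth; 0 = no effect, 100 = complete control.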"}, "[6]": {"test_system": "blackgrass (Alopecurus myosuroides)", "test": "Test A preemergence soil spray, visual injury rating 0-100", "conditions": "10 days", "how_it_was_run": "as §2"}, "[7]": {"test_system": "palmer (palmer amaranth, palmer pigweed, Amaranthus palmeri)", "test": "Test A preemergence soil spray, visual injury rating 0-100", "conditions": "10 days", "how_it_was_run": "as §2"}, "[8]": {"test_system": "barnyardgrass (Echinochloa crus-galli)", "test": "Test A preemergence soil spray, visual injury rating 0-100", "conditions": "10 days", "how_it_was_run": "as §2"}, "[9]": {"test_system": "wheat (Triticum aestivum)", "test": "Test A preemergence soil spray, visual injury rating 0-100", "conditions": "10 days", "how_it_was_run": "as §2"}, "[10]": {"test_system": "kochia (Bassia scoparia)", "test": "Test A preemergence soil spray, visual injury rating 0-100", "conditions": "10 days", "how_it_was_run": "as §2"}, "[11]": {"test_system": "corn (Zea mays)", "test": "Test A preemergence soil spray, visual injury rating 0-100", "conditions": "10 days", "how_it_was_run": "as §2"}, "[12]": {"test_system": "ragweed (common ragweed, Ambrosia artemisiifolia)", "test": "Test A preemergence soil spray, visual injury rating 0-100", "conditions": "10 days", "how_it_was_run": "as §2"}, "[13]": {"test_system": "green foxtail (Setaria viridis)", "test": "Test A preemergence soil spray, visual injury rating 0-100", "conditions": "10 days", "how_it_was_run": "as §2"}, "[14]": {"test_system": "soybean (Glycine max)", "test": "Test A preemergence soil spray, visual injury rating 0-100", "conditions": "10 days", "how_it_was_run": "as §2"}, "[15]": {"test_system": "ryegrass, Italian (italian ryegrass, Lolium multiflorum)", "test": "Test A preemergence soil spray, visual injury rating 0-100", "conditions": "10 days", "how_it_was_run": "as §2"}, "[16]": {"test_system": "oat, wild (wild oat, Avena fatua)", "test": "Test A postemergence application, visual injury rating 0-100", "how_it_was_run": "as §2"}, "[17]": {"test_system": "blackgrass (Alopecurus myosuroides)", "test": "Test A postemergence application, visual injury rating 0-100", "how_it_was_run": "as §2"}, "[18]": {"test_system": "palmer (palmer amaranth, palmer pigweed, Amaranthus palmeri)", "test": "Test A postemergence application, visual injury rating 0-100", "how_it_was_run": "as §2"}, "[19]": {"test_system": "barnyardgrass (Echinochloa crus-galli)", "test": "Test A postemergence application, visual injury rating 0-100", "how_it_was_run": "as §2"}, "[20]": {"test_system": "wheat (Triticum aestivum)", "test": "Test A postemergence application, visual injury rating 0-100", "how_it_was_run": "as §2"}, "[21]": {"test_system": "kochia (Bassia scoparia)", "test": "Test A postemergence application, visual injury rating 0-100", "how_it_was_run": "as §2"}, "[22]": {"test_system": "corn (Zea mays)", "test": "Test A postemergence application, visual injury rating 0-100", "how_it_was_run": "as §2"}, "[23]": {"test_system": "ragweed (common ragweed, Ambrosia artemisiifolia)", "test": "Test A postemergence application, visual injury rating 0-100", "how_it_was_run": "as §2"}, "[24]": {"test_system": "green foxtail (Setaria viridis)", "test": "Test A postemergence application, visual injury rating 0-100", "how_it_was_run": "as §2"}, "[25]": {"test_system": "soybean (Glycine max)", "test": "Test A postemergence application, visual injury rating 0-100", "how_it_was_run": "as §2"}, "[26]": {"test_system": "ryegrass, Italian (italian ryegrass, Lolium multiflorum)", "test": "Test A postemergence application, visual injury rating 0-100", "how_it_was_run": "as §2"}, "[27]": {"test_system": "horseweed (Erigeron canadensis)", "test": "Test A postemergence application, visual injury rating 0-100", "how_it_was_run": "as §2"}, "[28]": {"conditions": "62 g ai/ha, 0 = no effect, 100 = complete control"}, "[29]": {"conditions": "62 g ai/ha, postemergence, 10 days, 0 = no effect, 100 = complete control"}, "[30]": {"conditions": "Postemergence, 16 g ai/ha, greenhouse 10 days, 0 no effect, 100 complete control"}}}
{"smiles": "COC(=O)C1CC(NC(=O)C2(C)CN(c3cc(F)cc(Cl)c3)C(=O)O2)C1", "note": "(centres unmarked) [Compound 145]", "values": [{"measurement": "Plant response rating, Barnyardgrass (0 to 100 scale, 0 is no effect and 100 is complete control)", "setting": "[1]", "value": 60}, {"measurement": "Plant response rating, Sedge, Umbrella (0 to 100 scale, 0 is no effect and 100 is complete control)", "setting": "[2]", "value": 50}, {"measurement": "Plant response rating, Ducksalad (0 to 100 scale, 0 is no effect and 100 is complete control)", "setting": "[3]", "value": 60}, {"measurement": "Plant response rating, Rice (0 to 100 scale, 0 is no effect and 100 is complete control)", "setting": "[4]", "value": 40}, {"measurement": "Oat, Wild plant response rating", "setting": "[5]; 16 g ai/ha, 0 to 100 scale", "value": 20}, {"measurement": "Oat, Wild plant response rating (0-100)", "setting": "[5]; [28]", "value": 80}, {"measurement": "Blackgrass plant response rating", "setting": "[6]; 16 g ai/ha, 0 to 100 scale", "value": 0}, {"measurement": "Blackgrass plant response rating (0-100)", "setting": "[6]; [28]", "value": 80}, {"measurement": "Pigweed, Palmer plant response rating", "setting": "[7]; 16 g ai/ha, 0 to 100 scale", "value": 0}, {"measurement": "Pigweed, Palmer plant response rating (0-100)", "setting": "[7]; [28]", "value": 0}, {"measurement": "Barnyardgrass plant response rating", "setting": "[8]; 16 g ai/ha, 0 to 100 scale", "value": 20}, {"measurement": "Barnyardgrass plant response rating (0-100)", "setting": "[8]; [28]", "value": 80}, {"measurement": "Wheat plant response rating", "setting": "[9]; 16 g ai/ha, 0 to 100 scale", "value": 80}, {"measurement": "Wheat plant response rating (0-100)", "setting": "[9]; [28]", "value": 90}, {"measurement": "Kochia plant response rating", "setting": "[10]; 16 g ai/ha, 0 to 100 scale", "value": 0}, {"measurement": "Kochia plant response rating (0-100)", "setting": "[10]; [28]", "value": 0}, {"measurement": "Corn plant response rating", "setting": "[11]; 16 g ai/ha, 0 to 100 scale", "value": 10}, {"measurement": "Corn plant response rating (0-100)", "setting": "[11]; [28]", "value": 80}, {"measurement": "Ragweed plant response rating", "setting": "[12]; 16 g ai/ha, 0 to 100 scale", "value": 0}, {"measurement": "Ragweed plant response rating (0-100)", "setting": "[12]; [28]", "value": 0}, {"measurement": "Foxtail, Green plant response rating", "setting": "[13]; 16 g ai/ha, 0 to 100 scale", "value": 10}, {"measurement": "Foxtail, Green plant response rating (0-100)", "setting": "[13]; [28]", "value": 90}, {"measurement": "Soybean plant response rating", "setting": "[14]; 16 g ai/ha, 0 to 100 scale", "value": 0}, {"measurement": "Soybean plant response rating (0-100)", "setting": "[14]; [28]", "value": 50}, {"measurement": "Ryegrass, Italian plant response rating", "setting": "[15]; 16 g ai/ha, 0 to 100 scale", "value": 30}, {"measurement": "Ryegrass, Italian plant response rating (0-100)", "setting": "[15]; [28]", "value": 100}, {"measurement": "Oat, Wild plant response rating (0-100)", "setting": "[16]; [29]", "value": 90}, {"measurement": "Oat, Wild plant response rating (0 to 100 scale)", "setting": "[16]; [30]", "value": 90}, {"measurement": "Blackgrass plant response rating (0-100)", "setting": "[17]; [29]", "value": 100}, {"measurement": "Blackgrass plant response rating (0 to 100 scale)", "setting": "[17]; [30]", "value": 90}, {"measurement": "Pigweed, Palmer plant response rating (0-100)", "setting": "[18]; [29]", "value": 70}, {"measurement": "Pigweed, Palmer plant response rating (0 to 100 scale)", "setting": "[18]; [30]", "value": 10}, {"measurement": "Barnyardgrass plant response rating (0-100)", "setting": "[19]; [29]", "value": 100}, {"measurement": "Barnyardgrass plant response rating (0 to 100 scale)", "setting": "[19]; [30]", "value": 100}, {"measurement": "Wheat plant response rating (0-100)", "setting": "[20]; [29]", "value": 90}, {"measurement": "Wheat plant response rating (0 to 100 scale)", "setting": "[20]; [30]", "value": 90}, {"measurement": "Kochia plant response rating (0-100)", "setting": "[21]; [29]", "value": 90}, {"measurement": "Kochia plant response rating (0 to 100 scale)", "setting": "[21]; [30]", "value": 60}, {"measurement": "Corn plant response rating (0-100)", "setting": "[22]; [29]", "value": 100}, {"measurement": "Corn plant response rating (0 to 100 scale)", "setting": "[22]; [30]", "value": 100}, {"measurement": "Ragweed plant response rating (0-100)", "setting": "[23]; [29]", "value": 20}, {"measurement": "Ragweed plant response rating (0 to 100 scale)", "setting": "[23]; [30]", "value": 0}, {"measurement": "Foxtail, Green plant response rating (0-100)", "setting": "[24]; [29]", "value": 90}, {"measurement": "Foxtail, Green plant response rating (0 to 100 scale)", "setting": "[24]; [30]", "value": 90}, {"measurement": "Soybean plant response rating (0-100)", "setting": "[25]; [29]", "value": 80}, {"measurement": "Soybean plant response rating (0 to 100 scale)", "setting": "[25]; [30]", "value": 50}, {"measurement": "Ryegrass, Italian plant response rating (0-100)", "setting": "[26]; [29]", "value": 90}, {"measurement": "Ryegrass, Italian plant response rating (0 to 100 scale)", "setting": "[26]; [30]", "value": 70}, {"measurement": "Horseweed plant response rating (0-100)", "setting": "[27]; [29]", "value": 30}, {"measurement": "Horseweed plant response rating (0 to 100 scale)", "setting": "[27]; [30]", "value": 30}]}
